In patent US20090163548A1, “Method of using and comopositions comprising immunomodulatory compounds for the treatment and management of myeloproliferative diseases” (priority 2004, published 2009):

Assays:
[1] = dog, in vivo
Procedure: The effects of 3-(4-amino-1-oxo-1,3-dihydro-isoindol-2-yl)-piperidine-2,6-dione on cardiovascular and respiratory function were investigated in anesthetized dogs. Two groups of Beagle dogs (2/sex/group) were used. One group received three doses of vehicle only and the other received three ascending doses of 3-(4-amino-1-oxo-1,3-dihydro-isoindol-2-yl)-piperidine-2,6-dione (2, 10, and 20 mg/kg). In all cases, doses of 3-(4-amino-1-oxo-1,3-dihydro-isoindol-2-yl)-piperidine-2,6-dione or vehicle were successively administered via infusion through the jugular vein separated by intervals of at least 30 minutes.
The only statistically significant difference between the vehicle and treatment groups was a small increase in arterial blood pressure (from 94 mmHg to 101 mmHg) following administration of the low dose of 3-(4-amino-1-oxo-1,3-dihydro-isoindol-2-yl)-piperidine-2,6-dione.

TNF-α [2] = experiment: Inhibition of TNF-α production following LPS-stimulation of human whole blood; assay type: cell-based; conditions: LPS-stimulated, read-out: IC50 for inhibiting production of TNF-α following LPS-stimulation of human whole blood
Excerpt: (§1) Inhibition of TNF-α production following LPS-stimulation of human PBMC and human whole blood by 3-(4-amino-1-oxo-1,3-dihydro-isoindol-2-yl)-piperidine-2,6-dione or thalidomide was investigated in vitro (Muller et al., Bioorg. Med. Chem. Lett. 9:1625-1630, 1999).

various cytokines = experiment: In vitro studies of effects on the production of various cytokines, comparison with thalidomide; assay type: cell-based; conditions: in all in vitro cytokine production studies
Excerpt: The pharmacological properties of 3-(4-amino-1-oxo-1,3-dihydro-isoindol-2-yl)-piperidine-2,6-dione, including activity comparisons with thalidomide, have been characterized in in vitro studies. Studies examined the effects of 3-(4-amino-1-oxo-1,3-dihydro-isoindol-2-yl)-piperidine-2,6-dione or thalidomide on the production of various cytokines. […] In addition, a safety pharmacology study of 3-(4-amino-1-oxo-1,3-dihydro-isoindol-2-yl)-piperidine-2,6-dione has been conducted in dogs and the effects of 3-(4-amino-1-oxo-1,3-dihydro-isoindol-2-yl)-piperidine-2,6-dione on ECG parameters were examined further as part of three repeat-dose toxicity studies in primates.

TNF-α [3] = experiment: Inhibition of TNF-α production following LPS-stimulation of human PBMC; assay type: cell-based; conditions: LPS-stimulated, read-out: IC50 for inhibiting production of TNF-α following LPS-stimulation of PBMC
Excerpt: as §1

In the case of `Nc1cccc2c1CN(C1CCC(=O)NC1=O)C2=O` (stereo not shown) [3-(4-amino-1-oxo-1,3-dihydro-isoindol-2-yl)-piperidine-2,6-dione], the “Arterial blood pressure after administration” value ([1]; both, Beagle, 2 mg/kg) is reported as 101 mmHg, the “Duration of the increase in arterial blood pressure” value ([1]; both, Beagle, 2 mg/kg) is reported as “approximately 15 minutes” and the “Deviations in femoral blood flow, respiratory parameters, and Qtc interval” value [1] is reported as “not considered treatment-related”. The “Increase in arterial blood pressure at higher doses” value [1] was “not seen at higher doses”, the IC50 (TNF-α [2]) was about 480 nM and the “Potency relative to thalidomide” value (various cytokines) was “at least 50 times”. The IC50 (TNF-α [3]) was about 100 nM.
